Assay results published in patent US9056874B2, “Complement pathway modulators and uses thereof” (NOVARTIS AG, priority 2012, dated 2015).

target: factor B (Homo sapiens, UniProt P00751); experiment: factor B inhibition assay of Biological Example 1; format: biochemical; parameters: CVF-Bb complex prepared from purified cobra venom factor (1 μM), recombinant human complement factor B; made in house; host or cells: drosophila cells (factor B); E. coli (factor D used to form the complex); details: IC50 (nM), assay of Biological Example 1 (Table 1)
Sequence (P00751 260-764 limits assumed): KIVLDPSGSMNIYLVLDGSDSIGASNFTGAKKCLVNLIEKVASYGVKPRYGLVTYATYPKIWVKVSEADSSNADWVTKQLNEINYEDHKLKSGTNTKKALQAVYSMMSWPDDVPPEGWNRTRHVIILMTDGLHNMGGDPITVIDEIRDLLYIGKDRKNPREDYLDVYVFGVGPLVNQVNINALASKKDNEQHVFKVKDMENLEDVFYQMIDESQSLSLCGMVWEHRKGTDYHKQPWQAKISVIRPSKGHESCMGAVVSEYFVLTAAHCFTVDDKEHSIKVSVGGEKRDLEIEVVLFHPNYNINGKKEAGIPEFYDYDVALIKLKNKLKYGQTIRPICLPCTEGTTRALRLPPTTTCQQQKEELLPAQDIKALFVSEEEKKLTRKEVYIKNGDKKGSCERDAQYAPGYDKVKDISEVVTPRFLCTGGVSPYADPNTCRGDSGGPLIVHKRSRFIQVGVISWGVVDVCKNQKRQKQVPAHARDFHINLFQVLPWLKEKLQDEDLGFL
Sequence (Q91132 23-649 partner limits assumed): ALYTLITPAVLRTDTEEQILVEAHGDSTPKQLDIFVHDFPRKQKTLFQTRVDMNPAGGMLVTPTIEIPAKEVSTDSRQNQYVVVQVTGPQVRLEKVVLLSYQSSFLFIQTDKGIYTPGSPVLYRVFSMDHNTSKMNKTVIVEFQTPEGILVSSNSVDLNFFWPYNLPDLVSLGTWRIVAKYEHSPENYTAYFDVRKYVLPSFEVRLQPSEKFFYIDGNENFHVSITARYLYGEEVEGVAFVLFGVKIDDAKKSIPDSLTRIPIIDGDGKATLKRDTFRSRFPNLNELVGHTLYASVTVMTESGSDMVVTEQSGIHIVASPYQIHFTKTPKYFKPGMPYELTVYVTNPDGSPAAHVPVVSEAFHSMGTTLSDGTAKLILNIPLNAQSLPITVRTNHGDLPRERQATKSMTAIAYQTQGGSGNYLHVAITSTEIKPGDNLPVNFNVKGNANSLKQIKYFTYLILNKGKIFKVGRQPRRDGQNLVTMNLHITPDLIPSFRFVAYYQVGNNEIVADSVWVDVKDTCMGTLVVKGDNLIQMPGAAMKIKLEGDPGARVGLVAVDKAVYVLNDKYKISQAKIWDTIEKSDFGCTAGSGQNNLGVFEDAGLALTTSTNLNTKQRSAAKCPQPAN
Sequence (Q91132 733-984 partner limits assumed): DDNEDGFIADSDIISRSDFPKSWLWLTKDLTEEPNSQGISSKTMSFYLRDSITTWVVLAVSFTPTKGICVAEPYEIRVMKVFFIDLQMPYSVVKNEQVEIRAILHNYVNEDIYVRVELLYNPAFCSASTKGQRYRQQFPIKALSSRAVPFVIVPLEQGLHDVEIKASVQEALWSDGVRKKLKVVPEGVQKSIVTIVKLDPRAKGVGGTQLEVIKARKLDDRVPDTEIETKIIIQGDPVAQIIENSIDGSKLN
Sequence (Q91132 1264-1642 partner limits assumed): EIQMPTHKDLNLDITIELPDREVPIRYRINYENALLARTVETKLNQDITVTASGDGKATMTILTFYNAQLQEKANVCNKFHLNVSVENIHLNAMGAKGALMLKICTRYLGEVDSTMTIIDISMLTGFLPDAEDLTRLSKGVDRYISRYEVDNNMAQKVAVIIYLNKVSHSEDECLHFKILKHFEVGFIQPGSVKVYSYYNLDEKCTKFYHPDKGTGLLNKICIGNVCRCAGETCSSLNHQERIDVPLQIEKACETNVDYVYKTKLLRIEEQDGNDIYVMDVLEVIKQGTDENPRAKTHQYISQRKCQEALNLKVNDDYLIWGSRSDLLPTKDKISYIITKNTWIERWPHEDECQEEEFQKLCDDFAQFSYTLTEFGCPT

Question: Which IC50 does the source give for `COc1cc(C)c2[nH]ccc2c1C(O)c1nc2cc(C#N)ccc2o1` (single isomer, unassigned; (+)) [125-B b) (+), (+)-2-(hydroxy(5-methoxy-7-methyl-1H-indol-4-yl)methyl)benzo[d]oxazole-5-carbonitrile] here?
Answer: Its IC50 is 180 nM.

Question: With `COc1cc(C)c2[nH]ccc2c1C(O)(c1nc2cc(C#N)ccc2o1)C(F)(F)F` (single isomer, unassigned; (+)) [128-B b) (+), (+)-2-(2,2,2-trifluoro-1-hydroxy-1-(5-methoxy-7-methyl-1H-indol-4-yl)ethyl)benzo[d]oxazole-5-carbonitrile] as the compound, how does the IC50 read?
Answer: Its IC50 is 1990 nM.

Question: With `COc1cc(C)c2[nH]ccc2c1C(C)(N)c1nc2cc(C#N)ccc2o1` (single isomer, unassigned; (+)) [131-B b) (+), (+)-2-(1-amino-1-(5-methoxy-7-methyl-1H-indol-4-yl)ethyl)benzo[d]oxazole-5-carbonitrile] as the compound, how does the IC50 read?
Answer: The IC50 was 140 nM.

Question: `CCc1cc(C)c2[nH]cc(C(F)(F)F)c2c1C(C)(O)c1nc2cc(C#N)ccc2[nH]1` (single isomer, unassigned; (+)) [Example 88, (+)-2-(1-(5-Ethyl-7-methyl-3-(trifluoromethyl)-1H-indol-4-yl)-1-hydroxyethyl)-1H-benzo[d]imidazole-5-carbonitrile] was tested. Which IC50 did it give?
Answer: Its IC50 is 57900 nM.

Question: Which IC50 does the source give for `Cc1cc(OC(F)F)c(C(O)c2nc3cc(C#N)ccc3[nH]2)c2cc[nH]c12` (single isomer, unassigned; (-)) [3-B b) (−), (−)-2-((5-(difluoromethoxy)-7-methyl-1H-indol-4-yl)(hydroxy)methyl)-1H-benzo[d]imidazole-5-carbonitrile] here?
Answer: The IC50 was 250 nM.

Question: With `Cc1cc(OC(F)F)c(C(C)(N)c2nc3cc(C#N)ccc3[nH]2)c2cc[nH]c12` (single isomer, unassigned; (-)) [5-E b) (−), (−)-2-(1-amino-1-(5-(difluoromethoxy)-7-methyl-1H-indol-4-yl)ethyl)-1H-benzo[d]imidazole-5-carbonitrile] as the compound, how does the IC50 read?
Answer: Its IC50 is 40 nM.

Question: How did the IC50 turn out when `COC(C)(c1nc2cc(C#N)ccc2[nH]1)c1c(OC(F)F)cc(C)c2[nH]ccc12` (single isomer, unassigned; (-)) [8-B b) (−), (−)-2-(1-(5-(difluoromethoxy)-7-methyl-1H-indol-4-yl)-1-methoxyethyl)-1H-benzo[d]imidazole-5-carbonitrile] was run?
Answer: Its IC50 is 900 nM.

Question: With `Cc1cc(S(C)(=O)=O)c(C(C)(N)c2nc3cc(C#N)ccc3[nH]2)c2cc[nH]c12` (single isomer, unassigned; (-)) [13-E b) (−), (−)-2-(1-Amino-1-(7-methyl-5-(methylsulfonyl)-1H-indol-4-yl)ethyl)-1H-benzo[d]imidazole-5-carbonitrile] as the compound, how does the IC50 read?
Answer: The IC50 was 1410 nM.

Question: `Cc1cc(S(C)(=O)=O)c(C(O)(c2nc3cc(C#N)ccc3[nH]2)C(F)(F)F)c2cc[nH]c12` (single isomer, unassigned; (-)) [14-D b) (−), (−)-2-(2,2,2-trifluoro-1-hydroxy-1-(7-methyl-5-(methylsulfonyl)-1H-indol-4-yl)ethyl)-1H-benzo[d]imidazole-5-carbonitrile] was tested. Which IC50 did it give?
Answer: The IC50 was 270 nM.

Question: Which IC50 does the source give for `COC(c1nc2cc(C#N)ccc2[nH]1)(c1c(S(C)(=O)=O)cc(C)c2[nH]ccc12)C(F)(F)F` (single isomer, unassigned; (-)) [15-D b) (−), (−)-2-(2,2,2-trifluoro-1-methoxy-1-(7-methyl-5-(methylsulfonyl)-1H-indol-4-yl)ethyl)-1H-benzo[d]imidazole-5-carbonitrile] here?
Answer: Its IC50 is 680 nM.

Question: Which IC50 does the source give for `CNC(c1nc2cc(C#N)ccc2[nH]1)(c1c(S(C)(=O)=O)cc(C)c2[nH]ccc12)C(F)(F)F` (single isomer, unassigned; (-)) [16-B b) (−), (−)-2-(2,2,2-trifluoro-1-(7-methyl-5-(methylsulfonyl)-1H-indol-4-yl)-1-(methylamino)ethyl)-1H-benzo[d]imidazole-5-carbonitrile] here?
Answer: Its IC50 is 180 nM.

Question: How did the IC50 turn out when `Cc1cc(S(C)(=O)=O)c(C(N)(c2nc3cc(C#N)ccc3[nH]2)C(F)(F)F)c2cc[nH]c12` (single isomer, unassigned; (-)) [17-B b) (−), (−)-2-(1-amino-2,2,2-trifluoro-1-(7-methyl-5-(methylsulfonyl)-1H-indol-4-yl)ethyl)-1H-benzo[d]imidazole-5-carbonitrile] was run?
Answer: The IC50 was 1330 nM.

Question: For `COc1cc(C)c2[nH]ccc2c1C(O)c1nc2cc(C#N)ccc2[nH]1` (single isomer, unassigned; (-)) [24-B b) (−), (−)-2-(hydroxy(5-methoxy-7-methyl-1H-indol-4-yl)methyl)-1H-benzo[d]imidazole-5-carbonitrile], which IC50 is on record?
Answer: The IC50 was 90 nM.

Question: Which IC50 does the source give for `CCOc1cc(C)c2[nH]ccc2c1C(O)c1nc2cc(C#N)ccc2[nH]1` (single isomer, unassigned; (-)) [24-C b) (−), (−)-2-((5-ethoxy-7-methyl-1H-indol-4-yl)(hydroxy)methyl)-1H-benzo[d]imidazole-5-carbonitrile] here?
Answer: Its IC50 is 600 nM.

Question: Which IC50 does the source give for `Cc1cc(OC(C)C)c(C(O)c2nc3cc(C#N)ccc3[nH]2)c2cc[nH]c12` (single isomer, unassigned; (-)) [24-D b) (−), (−)-2-(hydroxy(5-isopropoxy-7-methyl-1H-indol-4-yl)methyl)-1H-benzo[d]imidazole-5-carbonitrile] here?
Answer: The IC50 was 490 nM.

Question: `CCOc1cc(C)c2[nH]ccc2c1C(C)(O)c1nc2cc(C#N)ccc2[nH]1` (single isomer, unassigned; (-)) [26-D b) (−), (−)-2-(1-(5-ethoxy-7-methyl-1H-indol-4-yl)-1-hydroxyethyl)-1H-benzo[d]imidazole-5-carbonitrile] was tested. Which IC50 did it give?
Answer: The IC50 was 440 nM.

Question: With `Cc1cc(OC(C)C)c(C(C)(O)c2nc3cc(C#N)ccc3[nH]2)c2cc[nH]c12` (single isomer, unassigned; (-)) [26-E b) (−), (−)-2-(1-hydroxy-1-(5-isopropoxy-7-methyl-1H-indol-4-yl)ethyl)-1H-benzo[d]imidazole-5-carbonitrile] as the compound, how does the IC50 read?
Answer: Its IC50 is 170 nM.

Question: How did the IC50 turn out when `CCC(O)(c1nc2cc(C#N)ccc2[nH]1)c1c(OC(C)C)cc(C)c2[nH]ccc12` (single isomer, unassigned; (-)) [26-F b) (−), (−)-2-(1-hydroxy-1-(5-isopropoxy-7-methyl-1H-indol-4-yl)propyl)-1H-benzo[d]imidazole-5-carbonitrile] was run?
Answer: The IC50 was 380 nM.

Question: How did the IC50 turn out when `Cc1cc(OCC2CC2)c(C(C)(O)c2nc3cc(C#N)ccc3[nH]2)c2cc[nH]c12` (single isomer, unassigned; (-)) [26-G b) (−), (−)-2-(1-(5-(cyclopropylmethoxy)-7-methyl-1H-indol-4-yl)-1-hydroxyethyl)-1H-benzo[d]imidazole-5-carbonitrile] was run?
Answer: The IC50 was 4380 nM.

Question: How did the IC50 turn out when `[2H]C([2H])([2H])C(OC)(c1nc2cc(C#N)ccc2[nH]1)c1c(OC)cc(C)c2[nH]ccc12` (single isomer, unassigned; (-)) [27-E b) (−), (−)-2-((^2H3)methyl(methoxy)(5-methoxy-7-methyl-1H-indol-4-yl)methyl)-1H-benzo[d]imidazole-5-carbonitrile] was run?
Answer: Its IC50 is 4 nM.

Question: `[2H]C([2H])([2H])OC(C)(c1nc2cc(C#N)ccc2[nH]1)c1c(OC)cc(C)c2[nH]ccc12` (single isomer, unassigned; (-)) [27-F b) (−), (−)-2-(1-(^2H3)methoxy-1-(5-methoxy-7-methyl-1H-indol-4-yl)ethyl)-1H-benzo[d]imidazole-5-carbonitrile] was tested. Which IC50 did it give?
Answer: Its IC50 is 9 nM.

Question: `COc1cc(C)c2[nH]cc(Cl)c2c1C(O)c1nc2cc(C#N)ccc2[nH]1` (single isomer, unassigned; (-)) [28-C b) (−), (−)-2-((3-chloro-5-methoxy-7-methyl-1H-indol-4-yl)(hydroxy)methyl)-1H-benzo[d]imidazole-5-carbonitrile] was tested. Which IC50 did it give?
Answer: The IC50 was 140 nM.

Question: With `COc1cc(C)c2[nH]ccc2c1C(O)(c1nc2cc(C#N)ccc2[nH]1)C(F)(F)F` (single isomer, unassigned; (-)) [33-B b) (−), (−)-2-(2,2,2-trifluoro-1-hydroxy-1-(5-methoxy-7-methyl-1H-indol-4-yl)ethyl)-1H-benzo[d]imidazole-5-carbonitrile] as the compound, how does the IC50 read?
Answer: Its IC50 is 50 nM.

Question: For `COc1cc(C)c2[nH]ccc2c1C(OC)(c1nc2cc(C#N)ccc2[nH]1)C(F)(F)F` (single isomer, unassigned; (-)) [34-B b) (−), (−)-2-(2,2,2-trifluoro-1-methoxy-1-(5-methoxy-7-methyl-1H-indol-4-yl)ethyl)-1H-benzo[d]imidazole-5-carbonitrile], which IC50 is on record?
Answer: The IC50 was 10 nM.

Question: Which IC50 does the source give for `COc1cc(C)c2[nH]ccc2c1C(OCC(=O)O)(c1nc2cc(C#N)ccc2[nH]1)C(F)(F)F` (single isomer, unassigned; (-)) [35-C (−), (−)-2-(1-(5-cyano-1H-benzo[d]imidazol-2-yl)-2,2,2-trifluoro-1-(5-methoxy-7-methyl-1H-indol-4-yl)ethoxy)acetic acid] here?
Answer: The IC50 was 40 nM.

Question: For `CNC(c1nc2cc(C#N)ccc2[nH]1)(c1c(OC)cc(C)c2[nH]ccc12)C(F)(F)F` (single isomer, unassigned; (-)) [38-B b) (−), (−)-2-(2,2,2-trifluoro-1-(5-methoxy-7-methyl-1H-indol-4-yl)-1-(methylamino)ethyl)-1H-benzo[d]imidazole-5-carbonitrile], which IC50 is on record?
Answer: The IC50 was 8 nM.

Question: With `CNC(C)(c1nc2cc(C#N)ccc2[nH]1)c1c(OC)cc(C)c2[nH]ccc12` (single isomer, unassigned; (-)) [42-D b) (−), (−)-2-(1-(5-methoxy-7-methyl-1H-indol-4-yl)-1-(methylamino)ethyl)-1H-benzo[d]imidazole-5-carbonitrile] as the compound, how does the IC50 read?
Answer: Its IC50 is 5 nM.

Question: Which IC50 does the source give for `Cc1cc(C)c2[nH]ccc2c1C(O)c1nc2cc(C#N)ccc2[nH]1` (single isomer, unassigned; (-)) [64-C b) (−), (−)-2-((5,7-dimethyl-1H-indol-4-yl)(hydroxy)methyl)benzo[d]imidazole-5-carbonitrile] here?
Answer: Its IC50 is 60 nM.

Question: How did the IC50 turn out when `Cc1cc(CO)c(C(O)c2nc3cc(C#N)ccc3[nH]2)c2cc[nH]c12` (single isomer, unassigned; (-)) [65-D b) (−), (−)-2-(hydroxy(5-(hydroxymethyl)-7-methyl-1H-indol-4-yl)methyl)-1H-benzo[d]imidazole-5-carbonitrile] was run?
Answer: Its IC50 is 270 nM.
